Reference: US8609695B2, “Methods of treating and/or suppressing insulin resistance” (Endorecherche, Inc., priority 1999, dated 2013)
Marks after values point to notes of the source that are not given here.

Tests used:
[1] = test system: ovariectomized rats; assay: 20-day treatment with EM-652.HCl, body fat, body weight and energy balance (Example 3); format: in vivo, rat; conditions: 20 days
Protocol: Eight to ten week-old female Sprague-Dawley rats (Crl:CD(SD)Br) (Charles River Laboratory, St-Constant, Canada) weighing approximately 200-225 g at the start of treatment were used. The animals were acclimatized to the environmental conditions (temperature: 22±3° C.; 10-h light-14-h dark cycles, lights on at 06:00 h) for 1 week before starting the experiment. The animals were housed individually in stainless steel cages of conventional design and were allowed free access to tap water and a high carbohydrate mixed diet composed of (g/100 g): Corn starch, 31.2; Dextrose, 31.2; Casein, 20.0; corn oil, 6.4; dl-Methionine, 0.3; Vitamine mix, 1.0; AIN-76 mineral mix, 4.9 and fiber, 5.0. The experiment was conducted in a Canadian Council on Animal Care approved facility in accordance with the CCAC Guide for Care and Use of Experimental Animals.
On day 1 of the study, the animals of the appropriate groups were bilaterally ovariectomized (OVX) under isoflurane anesthesia. […] The treatment with EM-652.HCl or vehicle alone (0.4% methylcellulose in water) was initiated on day 2 of the study. The compound or vehicle was given once daily by oral gavage in 0.5 ml/rat for 20 days. Body weights and food consumption were recorded every 2 days.
Approximately 24 hours after the last dosing, overnight fasted animals were anesthesized with ketamine-xylazine and blood drawn by cardiac puncture. The blood was collected as well as white and brown adipose tissues.
Body weight, food intake, and body gains in energy, fat, and protein were determined according to Deshaies et al, Am. J. Physiol., 1997; 273, E355-E362 (1997).
Lipoprotein lipase activities were determined according to Deshaies et al, Am. J. Physiol., 1997; 273, E355-E362 (1997).

[2] = test system: ovariectomized female rats; assay: SERM comparison, energy balance and lipid-lipoprotein metabolism (Example 10); format: in vivo, Rattus norvegicus; conditions: OVX rats, 20 days
Method in brief: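 Ovariectomized rats on a high-carbohydrate diet dosed by oral gavage 0.5 mg/rat in 0.4% methylcellulose for 20 days; sham-operated group included. Body weight and food intake every 2 days, DEXA body fat on Day 17. Necropsy on day 21, ~24 h post-dose after 6 h fast: serum lipids, glucose, insulin, leptin, tissue weights.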

[3] = OVX rats, EM-652.HCl 0.5 mg/rat oral once daily, E2 implant
[4] = high carbohydrate diet, 0.5 mg/rat oral gavage

SMILES: CC1=C(c2ccc(O)cc2)[C@H](c2ccc(OCCN3CCCCC3)cc2)Oc2cc(O)ccc21.Cl [EM-652.HCl, (S)-(+)-7-hydroxy-3-(4′-hydroxyphenyl)-4-methyl-2-(4″-(2′″-piperidino-ethoxy)phenyl)-2H-1-benxopyran hydrochloride]
- Ovx-induced increase in energy intake [1]: completely prevented
- Ovx-induced insulin resistance (fasting hyperinsulinemia and hyperglycemia) ([1]; FIG. 5): prevented
- decrease in soleus muscle lipoprotein lipase by Ovx ([1]; FIG. 8): prevented
- soleus weight increase by Ovx ([1]; FIG. 8): prevented
- OVX increase in mass of inguinal and retroperitoneal adipose tissues ([1]; FIGS. 6A and 6C): completely abolished
- body weight gain after ovariectomy ([1]; OVX rats, FIG. 2A): completely reversed
- protein gain ([1]; OVX rats, FIG. 2B): less accentuated
- fat gain after ovariectomy ([1]; OVX rats, FIG. 2C): completely reversed
- Cumulative food intake ([1]; OVX rats, FIG. 3): lower than that of intact animals
- increase in body energy from proteins following ovariectomy ([1]; OVX rats, FIG. 4A): completely reversed
- increase in body energy from fat following ovariectomy ([1]; OVX rats, FIG. 4B): completely reversed
- interscapular brown adipose tissue weight, protein content and lipoprotein lipase activity ([1]; OVX rats, FIG. 7): completely reversed
- Digestible energy intake [1, 3]: 4479^b kJ
- Enegery gain [1, 3]: 278^b kJ
- Apparent energy (expenditure) ([1]; OVX rats, calculated from energy intake and energy gain): 4201^b kJ
- Food efficiency ([1]; OVX rats, kJ deposited per 100 kJ ingested): 5.9b %
- Serum insulin (in words) ([2]; 0.5 mg/rat): decreased
- Brown adipose tissue Lipoprotein lipase activity [2, 4]: 900 ± 91 μU/g protein
- Brown adipose tissue weight [2, 4]: 0.339 ± 0.038 g
- Cumulative food intake [2, 4]: 324 ± 5 g
- Serum glucose [2, 4]: 15.9 ± 1.4 mmol/L
- Serum insulin [2, 4]: 0.122 ± 0.021 nmol/L
- Serum leptin [2, 4]: 1.10 ± 0.22 ng/mL
- Serum triglycerides [2, 4]: 0.91 ± 0.17 mmol/L
- Soleus muscle Lipoprotein lipase activity [2, 4]: 14.5 ± 4.1 μU/g protein
- Soleus muscle weight [2, 4]: 0.118 ± 0.018 g
- Total weight [2, 4]: 252 ± 4 g
- VastusLateralis muscle weight [2, 4]: 1.00 ± 0.047 g
- White adipose tissue inguinal Lipoprotein lipase activity [2, 4]: 684 ± 216 μU/g protein
- White adipose tissue inguinal weight [2, 4]: 0.244 ± 0.028 g
- White adipose tissue retroperitoneal Lipoprotein lipase activity [2, 4]: 1917 ± 365 μU/g protein
- White adipose tissue retroperitoneal weight [2, 4]: 1.32 ± 0.21 g
